Consider twelve molecules from patent publication US9504692B2, “Selective inhibition of MALT1 protease by phenothiazine derivatives” (HELMHOLTZ ZENTRUM MUNCHEN, DEUTSCHES FORSCHUNGSZENTRUM FUR …, priority 2011, dated 2016).

In test [1] the target is AtMC4 (Arabidopsis thaliana (Mouse-ear cress), UniProt O64517). The conditions noted are these: cited from earlier work.
For test [2], the target named is recombinant full length (FL) GSTMALT1 (Homo sapiens (Human), UniProt Q9UDY8). Put plainly: Recombinant GSTMALT1 cleavage assay with Ac-LRSR-AMC. It is filed as biochemical. On the procedure: The MALT1 cleavage assay was used to screen ˜18000 small molecules of the ChemBioNet library at the Leibniz Institute for Molecular Pharmacology (FMP) in Berlin.^35 Screening volume was 11 μl in a 384-well non-binding assay plate (Corning) with […] GSTMALT1 against 10 μM final concentration of compounds. The assay was performed with 50 μM of Ac-LRSR-AMC substrate for 20 min at 30° C. As a negative control the recombinant MALT1 mutant C453A was used, as a medium inhibition control 1 nM of the Z-VRPR-FMK peptide.
Sequence of recombinant full length (FL) GSTMALT1 (Q9UDY8 other isoform, or with tags, fused parts or gaps): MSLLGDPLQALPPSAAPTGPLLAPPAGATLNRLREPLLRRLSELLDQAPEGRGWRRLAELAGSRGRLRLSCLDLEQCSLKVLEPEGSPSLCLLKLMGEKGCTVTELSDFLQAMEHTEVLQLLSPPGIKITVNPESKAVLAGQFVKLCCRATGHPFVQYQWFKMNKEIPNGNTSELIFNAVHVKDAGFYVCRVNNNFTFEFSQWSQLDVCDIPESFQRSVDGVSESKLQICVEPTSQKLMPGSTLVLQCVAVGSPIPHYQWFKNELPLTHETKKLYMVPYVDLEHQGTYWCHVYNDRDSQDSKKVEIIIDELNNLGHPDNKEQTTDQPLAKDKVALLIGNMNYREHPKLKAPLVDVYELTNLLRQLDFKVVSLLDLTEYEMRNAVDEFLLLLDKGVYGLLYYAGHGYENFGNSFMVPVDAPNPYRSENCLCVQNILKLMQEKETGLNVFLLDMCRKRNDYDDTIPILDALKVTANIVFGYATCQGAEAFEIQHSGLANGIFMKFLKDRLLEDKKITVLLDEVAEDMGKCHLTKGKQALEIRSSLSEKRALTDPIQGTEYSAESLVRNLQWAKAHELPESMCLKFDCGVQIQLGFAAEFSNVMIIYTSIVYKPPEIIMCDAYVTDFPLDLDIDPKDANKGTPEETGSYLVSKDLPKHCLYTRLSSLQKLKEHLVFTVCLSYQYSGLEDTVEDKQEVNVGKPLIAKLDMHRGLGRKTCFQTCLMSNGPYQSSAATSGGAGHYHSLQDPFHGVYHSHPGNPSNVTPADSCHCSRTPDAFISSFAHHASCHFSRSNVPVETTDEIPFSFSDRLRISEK
To screen for small molecular weight compounds that can inhibit MALT1 protease activity, recombinant GSTMALT1 was purified from E. coli to establish an in vitro protease cleavage assay suitable for high throughput screening (HTS). GSTMALT1 was incubated for 1 h at 30° C. in the presence of 50 μM of the tetrapeptide substrate Ac-LRSR-AMC, which is derived from the MALT1 cleavage site in the C-terminus of BCL10.^7 Proteolytic activity was determined by measuring the increase of fluorescence, which is emitted after cleavage and the accompanying release of the fluorophore AMC (FIGS. 1A and B). […] Similar to arginine-lysine specific metacaspases, the MALT1 protease has a high preference for cleaving after an arginine residue.

For test [3], the target named is AtMC9 (Arabidopsis thaliana (Mouse-ear cress), UniProt Q9FYE1). The following applies: cited from earlier work.
Sequence of AtMC9 (Q9FYE1 whole entry): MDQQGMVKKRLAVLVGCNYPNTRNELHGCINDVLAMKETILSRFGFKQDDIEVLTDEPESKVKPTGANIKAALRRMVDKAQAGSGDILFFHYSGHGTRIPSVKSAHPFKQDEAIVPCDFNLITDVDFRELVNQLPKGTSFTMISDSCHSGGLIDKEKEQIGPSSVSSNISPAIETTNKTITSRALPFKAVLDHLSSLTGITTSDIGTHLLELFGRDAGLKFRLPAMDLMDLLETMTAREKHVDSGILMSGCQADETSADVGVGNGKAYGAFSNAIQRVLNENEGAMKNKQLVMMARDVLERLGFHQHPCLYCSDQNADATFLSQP
The test system of test [4] is primary human PBMCs. The test can be described thus: IL-2 secretion of primary human PBMCs (ELISA). The conditions noted are these: 5 and 10 μM for 3 h; anti-CD3/CD28 20 h. It is filed as cell-based. On the technique in general: ELISA stands for enzyme-linked immunosorbent assay.
Test [5] concerns ABC-DLBCL cells. The test can be described thus: Apoptosis by AnnexinV-PE/7-AAD FACS, ABC-DLBCL cells. It is filed as cell-based. The conditions noted are these: 15 μM, five days. On the procedure: (§1) Viability of DLBCL cell lines was analysed with a cell count assay of trypan blue stained cells after four days and by MTT (3-4,5-Dimethylthiazol-2-yl-2,5-diphenyltetrazoliumbromid) cytotoxicity test after two days of dose-dependent inhibitor treatment in comparison to DMSO treated control cells. The cell-dependent reduction of MTT to formazan was measured at λ=450 nm with a μQuant microplate spectrophotometer (Biotek). Apoptosis rates were determined with PE-Annexin V staining of 7AAD^− cells (BD Pharmingen) by FACS analysis (LSRII, BD) after five days of compound treatment. Data was analyzed using FlowJo software (Treestar).

Test [6] deals with primary murine CD4+ T-cells. The test can be described thus: IL-2 mRNA (qPCR) and protein (ELISA) in primary murine CD4+ T cells. It is filed as cell-based, mouse. The conditions noted are these: 5 and 10 μM.
Test [7] has as its system GCB-DLBCL cell line Su-DHL-6. Put plainly: Murine DLBCL xenogeneic tumor model, GCB-DLBCL Su-DHL-6. It is filed as in vivo, NSG mice. The method, then: (§2) (A) Transplantation of OCI-Ly10 or Su-DHL-6 cells resuspended in matrigel (BD) into the flanks of NOD.Cg-Prkdc^scid ll2rg^tm1Wjl/SzJ (NSG) mice was carried out on day 0. Tumor size was determined by caliper measurement. […] Apoptosis was determined on tumor sections by TUNEL staining after 22 days of treatment. Pictures show staining of representative tumor sections. […] Expression of RelB and the MALT1-dependent cleavage product RelBΔ were detected in extracts of OCI-Ly10 tumor specimens by Western Blotting after 22 days.
(§3) For this purpose, the ABC-DLBCL cell line OCI-Ly10 and the GCB-DLBCL cell line Su-DHL-6 were injected as subcutaneous xenografts into NOD/scid IL-2Rg^null (NSG) mice (FIG. 8A). Both tumor cell lines were engrafted simultaneously on opposite flanks of individual mice.
(§4) Transplanted tumors were removed at the end of the treatment period and apoptotic cells were visualized by TUNEL staining on sections of the tumor tissue (FIG. 8B).

Test [8] deals with ABC-DLBCL cell line OCI-Ly10. The test can be described thus: Murine DLBCL xenogeneic tumor model, ABC-DLBCL OCI-Ly10. The format is in vivo, NSG mice. The method, then: as §2, §3, §4
Test [9] deals with GCB-DLBCL cell lines BJAB, Su-DHL-6 and Su-DHL-4. Put plainly: MTT cytotoxicity test, GCB-DLBCL cells. It is filed as cell-based. The conditions noted are these: two days, single treatment, increasing concentrations. On the procedure:
as §1
(§5) Further, cell viability was determined by cell counting after 4 days of treatment (FIG. 7B, D and FIG. 12C).

Test [10] deals with NF-κB. Put plainly: NF-κB DNA binding (EMSA) and NF-κB target proteins in ABC-DLBCL cells. It is filed as cell-based. The following applies: 10 and 20 μM.
Test [11] relates to ABC-DLBCL cells HBL1, OCI-Ly3, U2932 and TMD8. Put plainly: MTT cytotoxicity test, ABC-DLBCL cells. The conditions noted are these: two days, single treatment, increasing concentrations. The format is cell-based. The method, then:
as §1, §5

Test [12] has as its system ABC-DLBCL cells. Put plainly: IL-6 and IL-10 secretion of ABC-DLBCL cells (ELISA). The following applies: 20 h; ABC cell lines.
Procedure: Whole cell extracts, Western blotting and EMSA were performed as described previously.^9 Antibodies used were BCL-XL (Cell signaling), MALT1 (H300, B12), BCL10 (H197), c-FLIP (Alexis Biochemicals) and β-Actin (I-19). BCL10 cleavage was visualized after 20 h treatment of diffuse large B-cell lymphoma cells with different doses of PD.
Test [13] concerns GCB-DLBCL cells. The test can be described thus: Apoptosis by AnnexinV-PE/7-AAD FACS, GCB-DLBCL cells. It is filed as cell-based. The conditions noted are these: 15 μM, five days. The method, then: as §1
For test [14], the system named is Jurkat T cells. Put plainly: IL-2 secretion of Jurkat T cells (ELISA). It is filed as cell-based, human. The conditions noted are these: 5 and 10 μM; P/I or anti-CD3/CD28 for 20 h.
The test system of test [15] is GCB-DLBCL cells. The test can be described thus: Viability by cell counting, GCB-DLBCL cells. It is filed as cell-based. The conditions noted are these: 4 days of treatment. The method, then:
as §1, §5

For test [16], the system named is ABC-DLBCL cells. The test can be described thus: Viability by cell counting, ABC-DLBCL cells. It is filed as cell-based. The conditions noted are these: 4 days of treatment. The method, then: as §1, §5
In test [17] the target is human recombinant CASP8 (Homo sapiens (Human), UniProt Q14790). The test can be described thus: CASP8 cleavage assay with Ac-DEVD-AMC. It is filed as biochemical. The following applies: 50 pM; picomolar concentrations. On the procedure: After incubation of 16 h at 4° C.
Sequence of human recombinant CASP8 (Q14790 217-374): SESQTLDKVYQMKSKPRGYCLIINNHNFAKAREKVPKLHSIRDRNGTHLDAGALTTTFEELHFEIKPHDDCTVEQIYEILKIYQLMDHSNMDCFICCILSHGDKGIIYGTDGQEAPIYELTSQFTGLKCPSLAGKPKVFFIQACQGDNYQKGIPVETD
Sequence of human recombinant CASP8 (Q14790 385-479): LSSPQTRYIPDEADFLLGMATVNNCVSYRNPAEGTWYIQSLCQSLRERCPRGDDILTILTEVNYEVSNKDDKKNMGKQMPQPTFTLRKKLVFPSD
The mark [18] stands for this setting: daily i.p., mepazine 12 mg/kg or thioridazine 16 mg/kg, 22 days.

“Also recorded” adds a separate entry of the source. Read-outs that look alike come from different tables or passages of the source. *1 amine or outer side, *2 acyl side, *3 side chain or, on linkers, in order; H or OH if unused. Where a SMILES comes first, the peptide text is derived from it. [ ]: non-standard residue; d: D form. The star is where a group is joined. Sta = CC(C)C[C@H](N)[C@@H](O)CC(=O)O; Isovaleryl = CC(C)CC(=O)*; CO = O=C([*:1])[*:2]

Sequence of AtMC4 (O64517 whole entry): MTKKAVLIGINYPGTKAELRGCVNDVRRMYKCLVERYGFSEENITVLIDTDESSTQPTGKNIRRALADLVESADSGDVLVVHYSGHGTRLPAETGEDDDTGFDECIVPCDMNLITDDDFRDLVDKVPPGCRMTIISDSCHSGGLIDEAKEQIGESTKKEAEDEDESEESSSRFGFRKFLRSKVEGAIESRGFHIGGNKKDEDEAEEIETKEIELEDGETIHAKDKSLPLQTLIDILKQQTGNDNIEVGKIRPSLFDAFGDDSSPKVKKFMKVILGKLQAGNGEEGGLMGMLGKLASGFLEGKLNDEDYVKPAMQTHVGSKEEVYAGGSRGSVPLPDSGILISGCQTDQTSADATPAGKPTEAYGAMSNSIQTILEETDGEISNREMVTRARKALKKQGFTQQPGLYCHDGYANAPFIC

As for `CC(C)[C@H](NC(=O)[C@H](CCCNC(=N)N)NC(=O)N[C@@H](Cc1ccccc1)C(=O)O)C(=O)N[C@H](C=O)CCCNC(=N)N` [Antipain] ({Phe-CO}-Arg-Val-Arg-aldehyde), the “effect on AtMC4” value in [1] (1 μM inhibitor) is given as “inhibited”. In test [2] (1 μM inhibitor), the “effect on MALT1 activity” value is listed as “diminished; also recorded: inhibited”. The “effect on AtMC9” value in test [3] (1 μM inhibitor) was “inhibited”.

With `CC(C)C[C@H](NC(=O)[C@@H](NC(=O)N[C@@H](Cc1ccccc1)C(=O)O)[C@@H]1CCN=C(N)N1)C(=O)N[C@H](C=O)Cc1ccccc1` [Chymostatin], in [1] (100 μM inhibitor), the “effect on AtMC4” value is listed as “inhibited”. Besides, the “effect on MALT1 activity” value in test [2] (100 μM inhibitor) is reported as “diminished; also recorded: inhibited”. Besides, in test [3] (100 μM inhibitor), the “effect on AtMC9” value is listed as “inhibited”.

For the molecule `CC(C)C[C@H](NC(=O)[C@H]1O[C@@H]1C(=O)O)C(=O)NCCCCN=C(N)N` [E-64], the “effect on AtMC4” value in test [1] (100 μM inhibitor) was “mild effect”. In addition, the “effect on MALT1 activity” value in test [2] (100 μM inhibitor) was “does not inhibit MALT1”. In addition, the “effect on AtMC9” value in test [3] (100 μM inhibitor) is listed as “not AtMC9”.

For the molecule `CC(=O)N[C@@H](CC(C)C)C(=O)N[C@@H](CC(C)C)C(=O)N[C@H](C=O)CCCNC(=N)N` [Leupeptin], in test [1] (1 μM inhibitor), the “effect on AtMC4” value was “acting stronger on plant metacaspases”. In test [3] (1 μM inhibitor), the “effect on AtMC9” value is given as “acting stronger on plant metacaspases”.

For `CC(C)CC(=O)N[C@H](C(=O)N[C@H](C(=O)N[C@@H](CC(C)C)[C@@H](O)CC(=O)N[C@@H](C)C(=O)N[C@@H](CC(C)C)[C@@H](O)CC(=O)O)C(C)C)C(C)C` [Pepstatin A] (Isovaleryl-VV[Sta]A[Sta]-OH), in [2] (100 μM inhibitor), the “effect on MALT1 activity” value was “no effects”.

On to `Cc1ccc(S(=O)(=O)NC(CCCCN)C(=O)CCl)cc1` (stereo not shown) [TLCK], for which, in test [1] (1 μM inhibitor), the “effect on AtMC4” value was “much weaker”. For the same molecule, the “effect on MALT1 activity” value in test [2] (1 μM inhibitor) was “no effects; also recorded: only mildly affecting MALT1 activity”. Also, the “effect on AtMC9” value in test [3] (1 μM inhibitor) is “strongly inhibits”.

In the case of `CN1CCCC(CN2c3ccccc3Sc3ccccc32)C1` (stereo not shown) [mepazine, 10-[(1-methyl-3-piperidinyl)methyl]-10H-phenothiazine acetate], the IL-2 secretion result in test [4] is given as “significant decrease of IL-2 secretion”. Further, the apoptotic rate result is reported as “enhanced apoptotic rate” in [5] and “apoptosis was not increased” in test [13]. Moreover, the “IL-2 mRNA induction” value in [6] (3 h pre-treatment, anti-CD3/CD28 4 h) was “reduced in a dose-dependent manner”. Further, in [6] (anti-CD3/CD28 20 h), the IL-2 protein expression entry is listed as “reduced in a dose-dependent manner”. The “apoptotic cells in tumor sections (TUNEL)” value in [7] (after 22 days of treatment) is on record as “no induction of apoptosis”; in test [8] (after 22 days of treatment), “increased the number of apoptotic cells”. Further, the “tumor growth of Su-DHL-6 xenograft” value in test [7] (setting [18]) is “completely failed to exert any inhibitory effects”. Moreover, the “constitutive RelB cleavage in OCI-Ly10 tumor specimens” value in test [8] (Western Blot after 22 days) was “impaired”. Further, in test [8] (setting [18]), the “tumor growth of OCI-Ly10 xenograft” value is “strongly impaired the expansion”. Further, the “cell viability by MTT” value in test [9] is “without significantly affecting GCB-DLBCL cells”; in [11] it was “promoted a decrease of cell viability”. Besides, in test [10] (20 h), the “BCL-XL and FLIP-L protein levels” value is recorded as “dose-dependent decrease”. Also, in [10] (20 hours), the “NF-κB target DNA binding” value was “reduced NF-κB target DNA binding”. In addition, in test [12], the “decrease of IL-6 and IL-10 secretion” value is on record as roughly 50%. For the same molecule, in test [14], the “secreted IL-2 levels” value is given as “decrease of IL-2 levels”.

As for `c1ccc2c(c1)Nc1ccccc1S2` [phenothiazine], in test [2] (1, 5 and 20 μM), the “inhibition of GSTMALT1 activity” value was “inhibiting MALT1 activity in a dose-dependent manner”.

Consider `CC(CN1c2ccccc2Sc2ccccc21)N(C)C` (stereo not shown) [promethazine], for which the “number of viable cells / viability” value in test [15] and in test [16] was “did not significantly inhibit viability” each time. For the same molecule, in test [2] (concentrations up to 20 μM), the MALT1 inhibition result is reported as “not inhibiting MALT1 protease activity; also recorded: did not cause any significant MALT1 inhibition”.

As for Ac-DEVD-CHO, the “CASP8 activity against Ac-DEVD-AMC” value in test [17] is recorded as “almost total decline of enzymatic activity; also recorded: effectively blocked CASP8 activity”. Moreover, in test [2] (200 μM inhibitor), the “effect on MALT1 activity” value is on record as “not significantly active; also recorded: only marginally reduced MALT1 activity”.

Aprotinin: the “effect on MALT1 activity” value in test [2] (5 μg/ml inhibitor) is given as “no effects”.

For the molecule Z-VRPR-FMK, in test [2] (1 nM inhibitor, 50 μM Ac-LRSR-AMC, 1 h at 30° C.), the “decrease of MALT1 activity” value is roughly 50%. Also, the “MALT1 cleavage activity with increasing amounts of inhibitor” value in [2] (increasing amounts, low nanomolar concentrations) was “total loss of MALT1 activity; also recorded: completely blocked MALT1 cleavage activity”.
